Where a name gives a salt, the structure may show the parent alone. Read-outs that look alike come from different tables or passages of the source.
Assays:
[1] = target: BIR3 domain of human cIAP-1 (residues 267-363) (Homo sapiens (Human), UniProt Q13490); experiment: cIAP-1 in vitro competitive displacement binding assay (fluorescence polarization; Probe A AVPIK(5&6FAM)-amide or Probe B AbuRPFK(5&6FAM)-amide); conditions: for inhibition at […]: 3 h, read-out: IC50 or PI cIAP1: PI
[2] = tested on: EVSA-T (human breast carcinoma); experiment: Anti-proliferative activity, Alamar Blue assay, EVSA-T; format: cell-based; conditions: Homo sapiens, EVSA-T; for EC50: 72 h
[3] = Probe B AbuRPFK(5&6FAM)-amide, read-out: IC50 or PI cIAP1: IC50
[4] = Probe A AVPIK(5&6FAM)-amide, read-out: IC50 or PI cIAP1: IC50
[5] = read-out: EC50, inhibition of cell growth

| SMILES | EC50 ([2]; read-out: EVSA-T prolif (EC50)) [nM] | other results |
| --- | --- | --- |
| COC[C@H]1CN[C@H](C)CN1CC(=O)N1CC(C)(C)c2cnc(Cc3cccc(OC)c3)cc21 [Example 89, 2-[(2R,5R)-2-(Methoxymethyl)-5-methylpiperazin-1-yl]-1-{6-[(3-methoxyphenyl)methyl]-3,3-dimethyl-1H,2H,3H-pyrrolo[3,2-c]pyridin-1-yl}ethan-1-one, hydrochloride salt] | 990 | IC50 [1, 3]: 16 nM |
| C[C@@H]1CN(CC(=O)N2CC(C)(C)c3ncc(C(F)(F)c4ccccc4)cc32)[C@@H](CN2CCCC2=O)CN1 [Example 210, 1-{[(2R,5R)-1-(2-{6-[Difluoro(phenyl)methyl]-3,3-dimethyl-1H,2H,3H-pyrrolo[3,2-b]pyridin-1-yl}-2-oxoethyl)-5-methylpiperazin-2-yl]methyl}pyrrolidin-2-one hydrochloride] | 54 |  |
| C[C@@H]1CN(CC(=O)N2CC(C)(C)c3cnc(Cc4ccc(F)cc4F)cc32)[C@@H](CN2CCCC2=O)CN1 [Example 179, 1-{[(2R,5R)-1-(2-{6-[(2,4-Difluorophenyl)methyl]-3,3-dimethyl-1H,2H,3H-pyrrolo[3,2-c]pyridin-1-yl}-2-oxoethyl)-5-methylpiperazin-2-yl]methyl}pyrrolidin-2-one hydrochloride] | 4.4 | inhibition at […] ([1]; Probe B, @ 0.012 μM): 97% |
| C[C@@H]1CN(CC(=O)N2CCc3ccc(Cc4ccccc4)cc32)CCN1 [Example 29, 1-(6-Benzyl-2,3-dihydro-indol-1-yl)-2-((R)-3-methyl-piperazin-1-yl)-ethanone hydrochloride salt] | 4600 | IC50 [1]: < 10000 nM; IC50 [1, 4]: 1400 nM; EC50 [2, 5]: < 10000 nM |
| CC(C)CC(F)(F)c1cnc2c(c1)N(C(=O)CN1C[C@@H](C)NC[C@@H]1CN1CCCC1=O)CC2(C)C [Example 216, 1-{[(2R,5R)-1-{2-[6-(1,1-Difluoro-3-methylbutyl)-3,3-dimethyl-1H,2H,3H-pyrrolo[3,2-b]pyridin-1-yl]-2-oxoethyl}-5-methylpiperazin-2-yl]methyl}pyrrolidin-2-one dihydrochloride] | 51 | inhibition at […] [1]: 68% |
| C[C@@H]1CN(CC(=O)N2CC(C)(C)c3cnc(C(C)(F)F)cc32)[C@@H](CN2CCCC2=O)CN1 [Example 184, dihydrochloride] | 650 | IC50 [1]: < 1000 nM; IC50 [1, 3]: 31 nM |
| COC[C@H]1CN[C@H](C)CN1CC(=O)N1CC(C)(C)c2cnc(Cl)cc21 [Example 62, 1-(6-Chloro-3,3-dimethyl-2,3-dihydro-pyrrolo[3,2-c]pyridin-1-yl)-2-((2R,5R)-2-methoxy-methyl-5-methyl-piperazin-1-yl)-ethanone hydrochloride salt] | 3800 |  |
| COC[C@H]1CN[C@H](C)CN1CC(=O)N1CC(C)(C)c2cnc(C(OC)c3ccccc3)cc21 (stereo partly drawn) [Example 132, 1-{6-[Methoxy(phenyl)methyl]-3,3-dimethyl-1H,2H,3H-pyrrolo[3,2-c]pyridin-1-yl}-2-[(2R,5R)-2-(methoxymethyl)-5-methylpiperazin-1-yl]ethan-1-one dihydrochloride] | 660 |  |
| C[C@@H]1CN(CC(=O)N2CC(C)(C)c3ncc(Cc4ccccc4F)cc32)[C@@H](CN2CC[C@@H](F)C2)CN1 [Example 250, 1-{6-[(2-Fluorophenyl)methyl]-3,3-dimethyl-1H,2H,3H-pyrrolo[3,2-b]pyridin-1-yl}-2-[(2R,5R)-2-{[(3R)-3-fluoropyrrolidin-1-yl]methyl}-5-methylpiperazin-1-yl]ethan-1-one dihydrochloride] | 16 | inhibition at […] [1]: 89% |
| COC[C@H]1CN[C@H](C)CN1CC(=O)N1CC(C)(C)c2ccc(Cl)cc21 [Example 44, 1-(6-Chloro-3,3-dimethyl-2,3-dihydro-indol-1-yl)-2-((2R,5R)-2-methoxymethyl-5-methyl-piperazin-1-yl)-ethanone hydrochloride salt] | 6600 |  |
| CCCC(F)(F)c1cnc2c(c1)N(C(=O)CN1C[C@@H](C)NC[C@@H]1CN1CCCC1=O)CC2(C)C [Example 217, 1-{[(2R,5R)-1-{2-[6-(1,1-Difluorobutyl)-3,3-dimethyl-1H,2H,3H-pyrrolo[3,2-b]pyridin-1-yl]-2-oxoethyl}-5-methylpiperazin-2-yl]methyl}pyrrolidin-2-one hydrochloride] | 50 |  |
| CC(C)CC(F)(F)c1cnc2c(c1)N(C(=O)CN1C[C@@H](C)NC[C@@H]1CN1CCOCC1)CC2(C)C [Example 235, 1-[6-(1,1-Difluoro-3-methylbutyl)-3,3-dimethyl-1H,2H,3H-pyrrolo[3,2-b]pyridin-1-yl]-2-[(2R,5R)-5-methyl-2-(morpholin-4-ylmethyl)piperazin-1-yl]ethan-1-one] | 31 |  |
| CCCC(F)(F)c1cnc2c(c1)N(C(=O)CN1C[C@@H](C)NC[C@@H]1CN1CCOCC1)CC2(C)C [Example 238, 1-[6-(1,1-Difluorobutyl)-3,3-dimethyl-1H,2H,3H-pyrrolo[3,2-b]pyridin-1-yl]-2-[(2R,5R)-5-methyl-2-(morpholin-4-ylmethyl)piperazin-1-yl]ethan-1-one hydrochloride] | 68 | inhibition at […] ([1]; Probe B, @ 0.012 μM): 69% |
| C[C@@H]1CN(CC(=O)N2CCc3cnc(Cc4ccccc4)cc32)CCN1 [Example 35, 1-(6-Benzyl-2,3-dihydro-pyrrolo[3,2-c]pyridin-1-yl)-2-((R)-3-methyl-piperazin-1-yl)-ethanone hydrochloride salt] |  | IC50 [1]: < 1000 nM; IC50 [1, 4]: 960 nM; inhibition at 10 µM ([2]; read-out: EVSA-T prolif: % inhibition): 28% |
| COC[C@H]1CN[C@H](C)CN1CC(=O)N1CC(C)(C)c2cnc(CCC(C)C)cc21 [Example 75, 1-[3,3-Dimethyl-6-(3-methyl-butyl)-2,3-dihydro-pyrrolo[3,2-c]pyridin-1-yl]-2-((2R,5R)-2-methoxy-methyl-5-methyl-piperazin-1-yl)-ethanone] | 500 |  |
| CCC(F)(F)c1cnc2c(c1)N(C(=O)CN1C[C@@H](C)NC[C@@H]1CN1CCCC1=O)CC2(C)C [Example 190, 1-{[(2R,5R)-1-{2-[6-(1,1-Difluoropropyl)-3,3-dimethyl-1H,2H,3H-pyrrolo[3,2-b]pyridin-1-yl]-2-oxoethyl}-5-methylpiperazin-2-yl]methyl}pyrrolidin-2-one hydrochloride] | 400 | IC50 ([1]; read-out: IC50 or PI cIAP1: IC50): 29 nM |
| COC[C@H]1CN[C@H](C)CN1CC(=O)N1CC(C)(C)c2cc(-c3nc(C)no3)c(Cl)cc21 [Example 141, 1-[6-Chloro-3,3-dimethyl-5-(3-methyl-1,2,4-oxadiazol-5-yl)-2,3-dihydro-1H-indol-1-yl]-2-[(2R,5R)-2-(methoxymethyl)-5-methylpiperazin-1-yl]ethan-1-one] | 9000 | IC50 [1, 3]: 280 nM; EC50 [2, 5]: < 10000 nM |
| C[C@@H]1CN(CC(=O)N2CC(C)(C)c3ccc(Cc4ccccc4)cc32)[C@@H](CO)CN1 [Example 42, 1-(6-Benzyl-3,3-dimethyl-2,3-dihydro-indol-1-yl)-2-((2R,5R)-2-hydroxymethyl-5-methyl-piperazin-1-yl)-ethanone trifluoroacetate salt] | 2600 |  |
| C[C@@H]1CN(CC(=O)N2CC(C)(C)c3cnc(Cc4ccc(F)cc4F)cc32)[C@@H](CN2CCCC2)CN1 [Example 220, 1-{6-[(2,4-Difluorophenyl)methyl]-3,3-dimethyl-1H,2H,3H-pyrrolo[3,2-c]pyridin-1-yl}-2-[(2R,5R)-5-methyl-2-(pyrrolidin-1-ylmethyl)piperazin-1-yl]ethan-1-one dihydrochloride] | 49 |  |
